One test has as its target T1, hM3 receptor (Homo sapiens, UniProt P20309).
T1 construct: expressed in transfected cells
Description: Blockade of agonist-mediated calcium release via FLIPR assay (hM3). The format is cell-based. As to conditions: CHO cells stably expressing hM3. The source says: B. Blockade of Agonist-Mediated Calcium Release Via FLIPR Assays
Muscarinic receptor subtypes (M1, M3 and M5 receptors), which couple to Gq proteins, activate the phospholipase C (PLC) pathway upon agonist binding to the receptor. As a result, activated PLC hydrolyzes phosphatyl inositol diphosphate (PIP2) to diacylglycerol (DAG) and phosphatidyl-1,4,5-triphosphate (IP3), which in turn generates calcium release from intracellular stores, i.e., endoplasmic and sarcoplasmic reticulum. […] This fluorescence event is measured in real time by the FLIPR, which detects the change in fluorescence from a monolayer of cells cloned with human M1 and M3, and chimpanzee M5 receptors. Antagonist potency can be determined by the ability of antagonists to inhibit agonist-mediated increases in intracellular calcium. […]
To determine antagonist potency, the dose-dependent stimulation of intracellular Ca^2+ release for oxotremorine was first determined so that antagonist potency can later be measured against oxotremorine stimulation at an EC90 concentration. […]
The parameters used for the FLIPR were: exposure length of 0.4 seconds, laser strength of 0.5 watts, excitation wavelength of 488 nm, and emission wavelength of 550 nm. Baseline was determined by measuring the change in fluorescence for 10 seconds prior to addition of agonist. […]

Test [1] has as its system His-induced bronchoconstriction. Description: Bronchoprotection in guinea pig model of histamine-induced bronchoconstriction. It counts as in vivo. As to conditions: inhalation. The method, then: Duration of Bronchoprotection in Guinea Pig Models of Acetylcholine-Induced or Histamine-Induced Bronchoconstriction
To isolate muscarinic antagonist activity in the acetylcholine-induced bronchoconstriction model, the animals were administered propanolol, a compound that blocks β receptor activity, prior to the administration of acetylcholine. Duration of bronchoprotection in the histamine-induced bronchoconstriction model reflects β2 adrenergic receptor agonist activity.
Groups of 6 male guinea pigs (Duncan-Hartley (HsdPoc:DH) Harlan, Madison, Wis.) weighing between 250 and 350 g were individually identified by cage cards. Throughout the study, animals were allowed access to food and water ad libitum.
Test compounds were administered via inhalation over 10 minutes in a whole-body exposure dosing chamber (R&S Molds, San Carlos, Calif.). […] This value was measured gravimetrically by comparing pre- and post-nebulization weights of the filled nebulizer.
The bronchoprotective effects of test compounds administered via inhalation were evaluated using whole body plethysmography at 1.5, 24, 48 and 72 hours post-dose. […]
Once it was determined that baseline values were within the range of 0.3-0.9 mL/cm H2O for compliance and within the range of 0.1-0.199 cm H2O/mL per second for resistance, the pulmonary evaluation was initiated. […]

These results are taken from US8101766B2, “Crystalline form of a biphenyl compound” (Theravance, Inc., priority 2004, dated 2012).

In general, Ki refers to the dissociation constant of the complex between target and ligand, obtained from inhibition or displacement.

T1 sequence (P20309 whole entry): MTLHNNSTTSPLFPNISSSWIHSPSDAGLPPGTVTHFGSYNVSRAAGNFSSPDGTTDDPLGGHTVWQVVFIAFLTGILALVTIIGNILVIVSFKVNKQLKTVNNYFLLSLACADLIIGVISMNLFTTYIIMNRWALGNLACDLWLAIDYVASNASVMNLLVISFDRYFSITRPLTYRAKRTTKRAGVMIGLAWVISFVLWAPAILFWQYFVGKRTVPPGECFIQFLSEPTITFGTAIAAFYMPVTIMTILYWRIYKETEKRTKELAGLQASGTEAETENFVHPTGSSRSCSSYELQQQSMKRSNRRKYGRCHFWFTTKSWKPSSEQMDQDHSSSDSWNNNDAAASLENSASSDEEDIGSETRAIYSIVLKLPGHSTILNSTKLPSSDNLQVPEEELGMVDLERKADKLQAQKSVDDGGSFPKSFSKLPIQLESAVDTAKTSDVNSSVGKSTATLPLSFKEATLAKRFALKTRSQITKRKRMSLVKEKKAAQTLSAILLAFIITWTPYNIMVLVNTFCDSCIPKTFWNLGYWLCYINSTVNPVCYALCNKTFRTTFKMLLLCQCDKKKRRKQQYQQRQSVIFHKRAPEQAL

Turning to `COc1cc(NC(=O)CCN2CCC(OC(=O)Nc3ccccc3-c3ccccc3)CC2)c(Cl)cc1CNC[C@H](O)c1ccc(O)c2[nH]c(=O)ccc12` [compound of formula I, biphenyl-2-ylcarbamic acid 1-[2-(2-chloro-4-{[(R)-2-hydroxy-2-(8-hydroxy-2-oxo-1,2-dihydroquinolin-5-yl)ethylamino]methyl}-5-methoxyphenylcarbamoyl)ethyl]piperidin-4-yl ester], on hM3 receptor, the Ki was less than 0.01 µM. In addition, the “bronchoprotective effect against His-induced bronchoconstriction” value in test [1] is “dose-dependent bronchoprotective effect”.
